For 1 molecule, Kd results are on record in article PMC1867856, “Structural Insights into the Evolution of a Non-Biological Protein: Importance of Surface Residues in Protein Fold Optimization” (PLoS ONE, 2007).

Holding throughout (assay type): binding, synthetic construct
One test deals with T1, protein 18-19 (N32D).
T1 construct: 80-residue artificial protein as N-terminal MBP fusion
Briefly: equilibrium ultrafiltration with γ-[…]-ATP.

The next test concerns the target T2, protein 18-19 (D65V).
T2 construct: 80-residue artificial protein as N-terminal MBP fusion
Briefly: equilibrium ultrafiltration with γ-[…]-ATP.

A further test addresses T3, protein 18-19.
T3 construct: Kd measured on the N-terminal MBP fusion; crystal structure model residues 9-71
Briefly: X-ray crystal structure ([…] Å) and equilibrium ultrafiltration with γ-[…]-ATP.

For `Nc1ncnc2c1ncn2[C@@H]1O[C@H](COP(=O)(O)OP(=O)(O)OP(=O)(O)O)[C@@H](O)[C@H]1O` [ATP], the Kd at protein 18-19 (N32D) amounted to 360 ± 12 nM; on protein 18-19 (D65V) it was 640 ± 28 nM; on protein 18-19, 1100 ± 78 nM.
